Laboratory results as given in patent US20100331348A1, “TROPANE DERIVATIVES USEFUL AS PESTICIDES” (SYNGENTA CROP PROTECTION, INC., priority 2007, published 2010).
Read-outs that look alike come from different tables or passages of the source.

Columns and labels:
Assay type in all cases: in vivo
Pyricularia oryzae = assay: whole plant or invertebrate; conditions: foliar, 96 h
[1] = system: Erysiphe graminis f.sp. tritici; assay: Erysiphe graminis f.sp. tritici (wheat powdery mildew) leaf disk assay; conditions: Blumeria graminis, foliar, 96 h, preventive, four days after inoculation, read-out: control of fungal infection, Erysiphe graminis fsp. tritici
Phytophthora infestans = assay: whole plant or invertebrate; conditions: foliar, 96 h, read-out: control of fungal infection, Phytophthora infestans
[2] = system: Puccinia recondita f.sp. tritici; assay: Puccinia recondita f.sp. tritici (wheat brown rust) leaf disk assay; conditions: foliar, 216 h, preventive, nine days after inoculation, read-out: control of fungal infection, Puccinia recondita f.sp. tritici
Aedes aegypti = Aedes aegypti (Yellow fever mosquito) larvae test; conditions: 48 h
[3] = read-out: control of fungal infection, Pyricularia oryzae (at least 80% list)
[4] = read-out: control of fungal infection, Pyricularia oryzae (at least 60% list)

c1cnc(OC2C[C@H]3CC[C@@H](C2)N3c2ncnc3sccc23)nc1 (some centres unmarked) [Example 1.2]
pest or weed control at 200 ppm (Pyricularia oryzae; [3]): ≥ 80% | pest or weed control at 200 ppm [1]: ≥ 80% | pest or weed control at 200 ppm (Phytophthora infestans): ≥ 80% | pest or weed control at 200 ppm [2]: ≥ 80%

CCC(=O)c1ccc(OC2C[C@H]3CC[C@@H](C2)N3c2ncnc3sccc23)cc1 (some centres unmarked) [Example 1.256]
pest or weed control at 2 ppm (Aedes aegypti): ≥ 80% | pest or weed control at 200 ppm (Phytophthora infestans): ≥ 80% | pest or weed control at 200 ppm [2]: ≥ 80%

FC(F)(F)c1ccc(OC2C[C@H]3CC[C@@H](C2)N3c2ncnc3sccc23)nc1 (some centres unmarked) [Example 2.61]
pest or weed control at 200 ppm (Pyricularia oryzae; [4]): ≥ 60% | pest or weed control at 200 ppm [1]: ≥ 80% | pest or weed control at 200 ppm (Phytophthora infestans): ≥ 80% | pest or weed control at 200 ppm [2]: ≥ 80%

FC(F)(F)c1cccc(OC2C[C@H]3CC[C@@H](C2)N3c2ncnc3ccccc23)n1 (some centres unmarked) [Example 2.83]
pest or weed control at 200 ppm [1]: ≥ 80% | pest or weed control at 200 ppm (Phytophthora infestans): ≥ 80% | pest or weed control at 200 ppm [2]: ≥ 80%

CCc1ncnc(N2C3CCC2CC(=NOCc2cccc(F)c2)C3)c1Cl [Example 5.48]
pest or weed control at 2 ppm (Aedes aegypti): ≥ 80% | pest or weed control at 200 ppm [1]: ≥ 80% | pest or weed control at 200 ppm (Phytophthora infestans): ≥ 80% | pest or weed control at 200 ppm [2]: ≥ 80%

CCc1ncnc(N2C3CCC2CC(=NOCc2ccc(NC(C)=O)cc2)C3)c1Cl [Example 5.51]
pest or weed control at 200 ppm [1]: ≥ 80% | pest or weed control at 200 ppm (Phytophthora infestans): ≥ 80% | pest or weed control at 200 ppm [2]: ≥ 80%

CCc1ncnc(N2C3CCC2CC(=NOCc2ccc(F)c(F)c2F)C3)c1Cl [Example 5.81]
pest or weed control at 200 ppm (Pyricularia oryzae; [4]): ≥ 60% | pest or weed control at 2 ppm (Aedes aegypti): ≥ 80% | pest or weed control at 200 ppm [1]: ≥ 80% | pest or weed control at 200 ppm (Phytophthora infestans): ≥ 80% | pest or weed control at 200 ppm [2]: ≥ 80%

CCc1ncnc(N2C3CCC2CC(=NOCc2c(C)noc2C)C3)c1Cl [Example 5.110]
pest or weed control at 200 ppm (Phytophthora infestans): ≥ 80% | pest or weed control at 200 ppm [2]: ≥ 80%

c1ccc(CCON=C2CC3CCC(C2)N3c2ncnc3sccc23)cc1 [Example 5.140]
pest or weed control at 200 ppm (Pyricularia oryzae; [4]): ≥ 60% | pest or weed control at 200 ppm (Pyricularia oryzae; [3]): ≥ 80% | pest or weed control at 200 ppm [1]: ≥ 80% | pest or weed control at 200 ppm (Phytophthora infestans): ≥ 80% | pest or weed control at 200 ppm [2]: ≥ 80%

Clc1cccc(CON=C2CC3CCC(C2)N3c2ncnc3sccc23)c1 [Example 5.150]
pest or weed control at 200 ppm (Pyricularia oryzae; [4]): ≥ 60% | pest or weed control at 2 ppm (Aedes aegypti): ≥ 80% | pest or weed control at 200 ppm [1]: ≥ 80% | pest or weed control at 200 ppm (Phytophthora infestans): ≥ 80% | pest or weed control at 200 ppm [2]: ≥ 80%

Brc1ccc(CON=C2CC3CCC(C2)N3c2ncnc3sccc23)cc1 [Example 5.158]
pest or weed control at 200 ppm (Pyricularia oryzae; [3]): ≥ 80% | pest or weed control at 200 ppm [1]: ≥ 80% | pest or weed control at 200 ppm (Phytophthora infestans): ≥ 80% | pest or weed control at 200 ppm [2]: ≥ 80%

CC(=O)Nc1ccc(CON=C2CC3CCC(C2)N3c2ncnc3sccc23)cc1 [Example 5.159]
pest or weed control at 200 ppm [1]: ≥ 80% | pest or weed control at 200 ppm (Phytophthora infestans): ≥ 80%

Brc1cccc(CON=C2CC3CCC(C2)N3c2ncnc3sccc23)c1 [Example 5.181]
pest or weed control at 200 ppm (Pyricularia oryzae; [4]): ≥ 60% | pest or weed control at 2 ppm (Aedes aegypti): ≥ 80% | pest or weed control at 200 ppm [1]: ≥ 80% | pest or weed control at 200 ppm (Phytophthora infestans): ≥ 80% | pest or weed control at 200 ppm [2]: ≥ 80%

Cc1cc(C)c(CON=C2CC3CCC(C2)N3c2ncnc3sccc23)c(C)c1 [Example 5.189]
pest or weed control at 200 ppm [1]: ≥ 80% | pest or weed control at 200 ppm (Phytophthora infestans): ≥ 80% | pest or weed control at 200 ppm [2]: ≥ 80%

N#Cc1cccc(CON=C2CC3CCC(C2)N3c2ncnc3sccc23)c1 [Example 5.199]
pest or weed control at 200 ppm (Pyricularia oryzae; [3]): ≥ 80% | pest or weed control at 200 ppm [1]: ≥ 80% | pest or weed control at 200 ppm (Phytophthora infestans): ≥ 80% | pest or weed control at 200 ppm [2]: ≥ 80%

Cc1nc(CON=C2CC3CCC(C2)N3c2ncnc3sccc23)cs1 [Example 5.220]
pest or weed control at 200 ppm [1]: ≥ 80% | pest or weed control at 200 ppm (Phytophthora infestans): ≥ 80% | pest or weed control at 200 ppm [2]: ≥ 80%

Fc1cc(CON=C2CC3CCC(C2)N3c2ncnc3sccc23)cc(C(F)(F)F)c1F [Example 5.235]
pest or weed control at 200 ppm (Pyricularia oryzae; [4]): ≥ 60% | pest or weed control at 200 ppm [1]: ≥ 80% | pest or weed control at 200 ppm (Phytophthora infestans): ≥ 80% | pest or weed control at 200 ppm [2]: ≥ 80%

COC(=O)Cc1c(Cl)ncnc1ON=C1CC2CCC(C1)N2c1ncnc2sccc12 [Example 5.237]
pest or weed control at 200 ppm [1]: ≥ 80% | pest or weed control at 200 ppm (Phytophthora infestans): ≥ 80%
